{
  "source": "paper PMC11539229",
  "about": "(Antimicrobial Agents and Chemotherapy, 2024)",
  "key": {"[1]": {"test_system": "drug-susceptible, MDR and XDR M.tb clinical isolates", "experiment": "microbe, parasite or virus in culture", "type": "cell-based, M. tuberculosis", "conditions": "Mycobacterium tuberculosis"}, "[2]": {"experiment": "physchem", "type": "physicochemical", "procedure": "Solubility assays were performed using a miniaturized shake flask method. Stock solutions (10 mM) of each test compound were used to prepare calibration standards (10–220 μM) in DMSO and to spike (1:50) duplicate aqueous samples of FaSSIF (simulating fasting state biorelevant media, pH 6.5) with a final DMSO concentration of 2%. After shaking for 2 h at 25°C, the solutions were filtered and analyzed by means of high-performance liquid chromatography with diode-array detection (HPLC-DAD) (Agilent 1200 Rapid Resolution HPLC with a diode array detector). Best-fit calibration curves were constructed using the calibration standards, which were used to determine the aqueous sample solubility ([32])."}, "[3]": {"target": "recombinant InhA (Mycobacterium tuberculosis, UniProt P9WGR1)", "sequence (P9WGR1 whole entry, looked up)": "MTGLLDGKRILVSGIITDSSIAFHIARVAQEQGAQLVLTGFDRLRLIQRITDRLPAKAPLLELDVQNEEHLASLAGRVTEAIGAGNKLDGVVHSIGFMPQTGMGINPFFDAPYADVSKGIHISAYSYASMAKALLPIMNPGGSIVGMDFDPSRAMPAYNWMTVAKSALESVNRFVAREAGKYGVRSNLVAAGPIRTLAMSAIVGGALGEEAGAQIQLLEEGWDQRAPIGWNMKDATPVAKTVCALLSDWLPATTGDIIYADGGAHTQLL", "experiment": "Inhibition of recombinant InhA", "type": "biochemical, M. tuberculosis", "procedure": "GSK138 inhibited recombinant InhA with an IC50 of 0.04 µM. The minimum inhibitory concentration (MIC) was 1 µM against M. tuberculosis H37Rv, and GSK138 retained its activity against intracellular bacteria growing inside THP-1-derived macrophages in vitro (MIC 0.9 µM)."}, "[4]": {"test_system": "HepG2 cells", "type": "cell-based", "conditions": "human, 48 h", "procedure": "HepG2 cells were cultured using Eagle’s minimum essential media (EMEM) supplemented with 10% heat-inactivated FBS, 1% non-essential amino acid (NEAA), and 1% penicillin/streptomycin. Prior to addition of the cell suspension, 250 nL of test compounds per well was pre-dispensed in tissue culture-treated black clear-bottomed 384-well plates (Greiner, cat. no. 781091) with an Echo 555 instrument. After that, 25 µL of HepG2 (cat. no. ATCC HB-8065) cells (∼3,000 cells/well) grown to confluency in EMEM supplemented with 10% heat-inactivated FBS, 1% NEAA, and 1% penicillin/streptomycin were added to each well with the reagent dispenser. Plates were allowed to incubate at 37°C with 20% O2 and 5% CO2 for 48 hrs. After incubation, the plates were equilibrated to room temperature before ATP levels were measured with the CellTiter Glo kit (Promega) as the cell viability read-out. 25 µL of CellTiter Glo substrate dissolved in the buffer was added to each well. Plates were incubated at room temperature for 10 min for stabilization of luminescence signal and read on a View Lux luminometer with excitation and emission filters of 613 and 655 nm, respectively. The Tox50 value corresponds to the concentration of the compound necessary to inhibit 50% of cell growth."}},
  "data": [
    {"smiles": "Cc1csc([C@](C)(O)c2nnc(Nc3cc(C)n(Cc4csc(C)n4)n3)s2)n1", "note": "[GSK138]", "values": [
      {"measurement": "MIC90", "setting": "[1]", "result": 3.75, "unit": "µM"},
      {"measurement": "solubility in FaSSIF", "setting": "[2]", "result": "high"},
      {"measurement": "solubility at 2 h", "setting": "[2]; pH 6.5", "result": "140 to 320", "unit": "µM"},
      {"measurement": "IC50", "setting": "[3]", "result": 40, "unit": "nM"},
      {"measurement": "HepG2 cytotoxicity Tox50", "setting": "[4]", "result": ">100", "unit": "µM"}
    ]}
  ]
}
